In US12723063B2, “GIPR-agonist compounds” (Eli Lilly and Company, priority 2019, dated 2026):
*1 amine or outer side, *2 acyl side, *3 side chain or, on linkers, in order; H or OH if unused. Where a SMILES comes first, the peptide text is derived from it. Side-chain parts run from the residue outwards. [ ]: non-standard residue; d: D form. The star is where a group is joined. C20 diacid = O=C(O)CCCCCCCCCCCCCCCCCCC(=O)*; γGlu = O=C(O)[C@H](CCC(=O)[*:2])N[*:1]; αMeL = CC(C)C[C@](C)(N)C(=O)O; Orn = NCCC[C@H](N)C(=O)O; AEEA = NCCOCCOCC(=O)O; Aib = CC(C)(N)C(=O)O

Legend:
human GIPR = biological target: T1, human GIPR (Homo sapiens, UniProt P48546); test: [125I]-GIP binding, SPA with WGA beads, 0.1% bacitracin; details: geometric mean, read-out: hGIPR Ki
T1 construct: expressed in transfected cells; crude membranes
T1 sequence (P48546 22-466): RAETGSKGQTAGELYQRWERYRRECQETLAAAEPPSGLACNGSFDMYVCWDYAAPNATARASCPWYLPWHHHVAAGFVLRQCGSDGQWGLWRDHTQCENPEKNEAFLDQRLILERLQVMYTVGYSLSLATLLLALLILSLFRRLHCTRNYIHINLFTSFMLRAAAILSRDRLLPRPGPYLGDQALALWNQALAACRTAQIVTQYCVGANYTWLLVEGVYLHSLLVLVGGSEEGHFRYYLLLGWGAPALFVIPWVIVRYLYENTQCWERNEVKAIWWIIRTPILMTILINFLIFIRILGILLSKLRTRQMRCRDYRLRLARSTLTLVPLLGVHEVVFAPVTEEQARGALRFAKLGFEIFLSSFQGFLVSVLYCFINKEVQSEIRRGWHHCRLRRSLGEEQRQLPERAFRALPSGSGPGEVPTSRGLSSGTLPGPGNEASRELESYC
In short: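 Ki values are geometric means (SEM, n independent days), derived from four-parameter nonlinear regression of IC50. Membranes came from hGIPR-expressing CHO cells.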

[1] = biological target: T2, human GLP-1 receptor (GLP-1R) (Homo sapiens, UniProt P43220); test: cAMP functional assay (HTRF) in HEK293 cells in presence of 0.1% casein; assay type: cell-based; details: HEK293 cells expressing human GLP-1R, geometric mean, read-out: hGLP1R cAMP Rel EC50 nM (SEM, n)
T2 construct: expressed in transfected cells; host or cells: HEK293
T2 sequence (P43220 24-463): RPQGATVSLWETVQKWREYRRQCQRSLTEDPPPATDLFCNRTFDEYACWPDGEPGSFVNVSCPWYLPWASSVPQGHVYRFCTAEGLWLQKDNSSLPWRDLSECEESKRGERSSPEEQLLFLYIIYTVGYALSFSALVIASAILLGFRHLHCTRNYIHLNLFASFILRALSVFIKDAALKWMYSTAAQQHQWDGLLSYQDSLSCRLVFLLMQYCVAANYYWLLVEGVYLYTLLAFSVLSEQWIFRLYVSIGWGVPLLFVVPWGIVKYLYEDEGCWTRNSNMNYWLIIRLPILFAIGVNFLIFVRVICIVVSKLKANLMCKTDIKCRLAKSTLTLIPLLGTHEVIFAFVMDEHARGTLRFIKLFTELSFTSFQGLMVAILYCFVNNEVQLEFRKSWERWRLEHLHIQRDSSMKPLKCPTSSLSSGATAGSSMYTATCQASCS

Row | SMILES | Ki (human GIPR) [nM] | EC50 [1] [nM]
1 | CC[C@H](C)[C@H](NC(=O)[C@H](CCCN)NC(=O)[C@H](CC(=O)O)NC(=O)[C@H](CC(C)C)NC(=O)[C@](C)(CC(C)C)NC(=O)[C@@H](NC(=O)[C@H](CO)NC(=O)[C@H](Cc1ccc(O)cc1)NC(=O)[C@H](CC(=O)O)NC(=O)[C@H](CO)NC(=O)[C@@H](NC(=O)[C@H](Cc1ccccc1)NC(=O)[C@@H](NC(=O)CNC(=O)[C@H](CCC(=O)O)NC(=O)C(C)(C)NC(=O)[C@@H](N)Cc1ccc(O)cc1)[C@@H](C)O)[C@@H](C)CC)[C@@H](C)CC)C(=O)N[C@@H](CCCNC(=N)N)C(=O)N[C@@H](CCC(N)=O)C(=O)NC(C)(C)C(=O)N[C@@H](CC(=O)O)C(=O)N[C@@H](Cc1ccccc1)C(=O)N[C@H](C(=O)N[C@@H](CCC(=O)O)C(=O)N[C@@H](Cc1ccc(O)cc1)C(=O)N[C@@H](CCCCNC(=O)COCCOCCNC(=O)COCCOCCNC(=O)CC[C@H](NC(=O)CCCCCCCCCCCCCCCCCCC(=O)O)C(=O)O)C(=O)N[C@@H](CC(C)C)C(=O)N[C@@H](CCC(=O)O)C(=O)NCC(=O)NCC(=O)N1CCC[C@H]1C(=O)N[C@@H](CO)C(=O)N[C@@H](CO)C(=O)NCC(=O)N[C@@H](C)C(=O)N1CCC[C@H]1C(=O)N1CCC[C@H]1C(=O)N1CCC[C@H]1C(=O)N[C@@H](CO)C(N)=O)C(C)C [Example 116] (H-Y[Aib]EGTFISDYSI[αMeL]LD[Orn]IRQ[Aib]DFVEYK([AEEA-AEEA-γGlu-C20 diacid])LEGGPSSGAPPPS-NH2) | 0.166 | > 5000
2 | CC[C@H](C)[C@H](NC(=O)[C@H](CCCCN)NC(=O)[C@H](CC(=O)O)NC(=O)[C@H](CC(C)C)NC(=O)[C@](C)(CC(C)C)NC(=O)[C@@H](NC(=O)[C@H](CO)NC(=O)[C@H](Cc1ccc(O)cc1)NC(=O)[C@H](CC(=O)O)NC(=O)[C@H](CO)NC(=O)[C@@H](NC(=O)[C@H](Cc1ccccc1)NC(=O)[C@@H](NC(=O)CNC(=O)[C@H](CCC(=O)O)NC(=O)C(C)(C)NC(=O)[C@@H](N)Cc1ccc(O)cc1)[C@@H](C)O)[C@@H](C)CC)[C@@H](C)CC)C(=O)N[C@@H](Cc1c[nH]cn1)C(=O)N[C@@H](CCC(N)=O)C(=O)NC(C)(C)C(=O)N[C@@H](CC(=O)O)C(=O)N[C@@H](Cc1ccccc1)C(=O)N[C@H](C(=O)N[C@@H](CCC(=O)O)C(=O)N[C@@H](Cc1ccc(O)cc1)C(=O)N[C@@H](CCCCNC(=O)COCCOCCNC(=O)COCCOCCNC(=O)CC[C@H](NC(=O)CCCCCCCCCCCCCCCCCCC(=O)O)C(=O)O)C(=O)N[C@@H](CC(C)C)C(=O)N[C@@H](CCC(=O)O)C(=O)N[C@@H](C)C(=O)NCC(=O)N1CCC[C@H]1C(=O)N[C@@H](CO)C(=O)N[C@@H](CO)C(=O)NCC(=O)N[C@@H](C)C(=O)N1CCC[C@H]1C(=O)N1CCC[C@H]1C(=O)N1CCC[C@H]1C(=O)N[C@@H](CO)C(N)=O)C(C)C [Example 117] (H-Y[Aib]EGTFISDYSI[αMeL]LDKIHQ[Aib]DFVEYK([AEEA-AEEA-γGlu-C20 diacid])LEAGPSSGAPPPS-NH2) | 0.0722 | > 5000
